Entries after “also recorded” stand apart in the source; their conditions may differ. Read-outs that look alike come from different tables or passages of the source. Residues, ends and D or L forms follow the SMILES beside them.

The target in test [1] is HumRadA2 (humanised, monomeric RadA; surrogate for RAD51) (Pyrococcus furiosus, UniProt O74036). In words: Isothermal titration calorimetry of peptides against HumRadA2. It counts as binding. Particulars: for ΔH: Tris pH 7.5, 100 mM NaCl, low c-value conditions, ± = model-fitting error; for TΔS: ΔS derived from ΔG by subtracting ΔH; for Change in binding affinity relative to FHTA: ITC K D compared with FHTA. Here is the method: Protein expression and purification was performed as described previously 15. In brief, monomeric HumRadA2 was expressed in E. coli using T7‐based expression vector at 37 °C for 3 h. Soluble cell lysate was heat treated to precipitate most of the cellular proteins and the soluble fraction containing HumRadA2 was purified using a combination of cation exchange chromatography at pH 6.0 and size‐exclusion chromatography in 10 mM MES, 100 mM NaCl pH 6.0 buffer. Protein concentration was determined using the calculated extinction coefficient at 280 nm, and stored at −80 °C in small aliquots after flash freezing.
Isothermal titration calorimetry experiments were performed at 25 °C on a MicroCal iTC200. HumRadA2 (600 μM in 20 mM MES pH 6.0 with 100 mM NaCl and 0.5 mM EDTA) was diluted with Tris buffer (200 mM, pH 7.5 with 100 mM NaCl) to 64–83 μM. […] The peptide solution was titrated into the protein solution; 16 injections (2.4 μL) of 4.8 s duration were made at 80‐s intervals. The initial injection of ligand (0.4 μL) was discarded during data analysis. […] The data were processed and thermodynamic parameters obtained by fitting the data to a single‐site‐binding model using Origin software and fixing the stoichiometry as 1.0 for weak‐binding ligands 16.
A general note: Isothermal titration calorimetry measures the heat released or taken up as one component is titrated into another.

Test [2] deals with HumRadA2 (humanised, monomeric RadA from Pyrococcus furiosus) (Pyrococcus furiosus) (UniProt O74036). In words: ITC; peptide (2.5-5 mM) titrated into HumRadA2 (64-83 μM) at 25 °C, MicroCal iTC200, 200 mM Tris pH 7.5, 100 mM NaCl; single-site model, stoichiometry fixed as 1.0 for weak-binding ligands; low c-value conditions.
Test [3] has the same target. The test is described as above. This is another data set of the same source.
In another test the test system is RAD51. To be noted: RAD51 oligomerisation sequence FTTA mutated; cited from earlier work. The text has this:
Table 1 Summary of FxxA‐relevant mutations previously reported and degree of characterisation. The mutation, relevant peptide context, resulting FxxA motif sequence and experimental technique for each entry is given. For clarity, mutated residues are shown in bold | column: Effect

Setting [4] is: ITC, 25 °C, MicroCal iTC200, peptide 2.5–5 mM in 200 mM Tris pH 7.5, 100 mM NaCl titrated into 64–83 μM HumRadA2, single-site model, stoichiometry fixed at 1.0 for weak binders, ± = fitting error.

Broadly, the Kd is a measure of binding affinity in units of concentration. As to `CC(=O)N[C@@H](Cc1ccccc1)C(=O)N[C@@H](Cc1c[nH]cn1)C(=O)N[C@@H](C)C(=O)N[C@@H](C)C(N)=O` [FHAA] (Ac-FHAA-NH2), in test [1] (setting [4]), the Kd was 675 ± 60 µM. For the same molecule, in test [1] (ITC, 25 °C), the ΔH is -7.948 ± 0.466 kcal/mol and the TΔS was -3.636 kcal/mol.
“FHTU tetrapeptide (U = α-amino butyric acid)” returned a dH in test [2] of -14.6 kcal/mol.
`CC(=O)N[C@@H](Cc1ccccc1)C(=O)N[C@@H](Cc1c[nH]cn1)C(=O)N[C@H](C(=O)NCC(N)=O)[C@@H](C)O` [FHTG] (Ac-FHTG-NH2): in test [1], the “Change in binding affinity relative to FHTA” value is “approximately sixfold drop in binding affinity”. Moreover, the Kd in test [1] (setting [4]) is 1590 ± 300 µM. In test [1] (ITC, 25 °C), the ΔH is -5.518 ± 0.924 kcal/mol and the TΔS is -1.702 kcal/mol.
On to `CC(=O)N[C@@H](Cc1ccccc1)C(=O)N[C@@H](CC(N)=O)C(=O)N[C@H](C(=O)N[C@@H](C)C(N)=O)[C@@H](C)O` [FNTA] (Ac-FNTA-NH2), for which the dissociation constant (Kd) in test [1] (setting [4]) stood at 613 ± 44 µM. Further, in test [1] (ITC, 25 °C), the ΔH was -4.036 ± 0.177 kcal/mol and the TΔS is 0.346 kcal/mol.
Turning to `CC[C@H](NC(=O)[C@@H](NC(=O)[C@H](Cc1c[nH]cn1)NC(=O)[C@H](Cc1ccccc1)NC(C)=O)[C@@H](C)O)C(N)=O` [FHTU] (HELM PEPTIDE1{[ac].F.H.T.[Abu].[am]}$$$$V2.0), the dissociation constant (Kd) in test [1] (setting [4]) came out at 680 ± 51 µM.
`CC(=O)N[C@@H](Cc1ccccc1)C(=O)N[C@@H](Cc1c[nH]cn1)C(=O)N[C@H](C(=O)N[C@@H](C)C(N)=O)[C@@H](C)O` [FHTA] (Ac-FHTA-NH2): in test [1] (ITC, 25 °C), the ΔH is -2.388 ± 0.094 kcal/mol and the TΔS is 2.453 kcal/mol.
In the case of `CC(=O)N[C@@H](Cc1ccccc1)C(=O)N[C@@H](Cc1c[nH]cn1)C(=O)N1CCC[C@H]1C(=O)N[C@@H](C)C(N)=O` [FHPA] (Ac-FHPA-NH2), in test [1] (setting [4]), the Kd was 113 ± 3 µM. Besides, in test [1] (ITC, 25 °C), the ΔH was -2.155 ± 0.026 kcal/mol and the TΔS is 3.218 kcal/mol.
For the molecule “FPTA [N-acetylated, C-amide terminated tetrapeptide FPTA]”, the “K D” value in test [1] (setting [4]) is on record as “no affinity for the protein; also recorded: No detectable binding”.
On to `CC(=O)N[C@@H](Cc1c[nH]c2ccccc12)C(=O)N[C@@H](Cc1c[nH]cn1)C(=O)N[C@H](C(=O)N[C@@H](C)C(N)=O)[C@@H](C)O` [WHTA] (Ac-WHTA-NH2), for which the “Change in binding affinity relative to FHTA” value in test [1] is “increase the binding affinity of the peptide approximately threefold”. Besides, in test [1] (setting [4]), the dissociation constant (Kd) turned out to be 93 ± 3 µM. Moreover, in test [1] (ITC, 25 °C), the ΔH is -2.768 ± 0.034 kcal/mol and the TΔS is 2.727 kcal/mol.
Regarding `CC(=O)N[C@@H](Cc1c[nH]c2ccccc12)C(=O)N[C@@H](Cc1c[nH]cn1)C(=O)N1CCC[C@H]1C(=O)N[C@@H](C)C(N)=O` [WHPA] (Ac-WHPA-NH2), in test [1], the “Change in binding affinity relative to FHTA” value is recorded as “no improvement”. Moreover, the Kd in test [1] (setting [4]) was found to be 330 ± 25 µM. In addition, in test [1] (ITC, 25 °C), the ΔH was -6.801 ± 0.318 kcal/mol and the TΔS was -2.044 kcal/mol.
For the molecule Ac-WHTA-NH2 [WHTA tetrapeptide], the dH in test [2] is -2.77 kcal/mol.
Ac-WHPA-NH2 [WHPA tetrapeptide]: the Kd in test [3] was 690 µM. In test [2], this molecule returned a dH of -6.8 kcal/mol.
On to Ac-FHAA-NH2 [FHAA tetrapeptide], for which the dH in test [2] was -7.95 kcal/mol.

B1: RAD51 A89E: RAD51 with oligomerisation sequence FTTA mutated to FTTE (literature) (protein, UniProt Q06609 2-339, looked up, variant A89E)
DNA repair protein RAD51 …: AMQMQLEANADTSVEEESFGPQPISRLEQCGINANDVKKLEEAGFHTVEAVAYAPKKELINIKGISEAKADKILAEAAKLVPMGFTTETEFHQRRSEIIQITTGSKELDKLLQGGIETGSITEMFGEFRTGKTQICHTLAVTCQLPIDRGGGEGKAMYIDTEGTFRPERLLAVAERYGLSGSDVLDNVAYARAFNTDHQTQLLYQASAMMVESRYALLIVDSATALYRTDYSGRGELSARQMHLARFLRMLLRLADEFGVAVVITNQVVAQVDGAAMFAADPKKPIGGNIIAHASTTRLYLRKGRGETRICKIYDSPCLPEAEAMFAINADGVGDAKD
B1: in the test on RAD51, the “Effect of mutation (binding)” value is “No binding”.

B2: RAD51 F86E: RAD51 with oligomerisation sequence FTTA mutated to ETTA (literature) (protein, UniProt Q06609 2-339, looked up, variant F86E)
DNA repair protein RAD51 …: AMQMQLEANADTSVEEESFGPQPISRLEQCGINANDVKKLEEAGFHTVEAVAYAPKKELINIKGISEAKADKILAEAAKLVPMGETTATEFHQRRSEIIQITTGSKELDKLLQGGIETGSITEMFGEFRTGKTQICHTLAVTCQLPIDRGGGEGKAMYIDTEGTFRPERLLAVAERYGLSGSDVLDNVAYARAFNTDHQTQLLYQASAMMVESRYALLIVDSATALYRTDYSGRGELSARQMHLARFLRMLLRLADEFGVAVVITNQVVAQVDGAAMFAADPKKPIGGNIIAHASTTRLYLRKGRGETRICKIYDSPCLPEAEAMFAINADGVGDAKD
With B2, the “Effect of mutation (binding)” value in the test on RAD51 is recorded as “No binding”.
In test [2], Ac-FHTA-NH2 [FHTA tetrapeptide (FxxA motif of BRC4 of BRCA2)] displayed a dissociation constant Kd of 280 µM and a dH of -2.39 kcal/mol.
Regarding Ac-FHPA-NH2 [FHPA tetrapeptide], the dH in test [2] is -2.16 kcal/mol.
Ac-FHTG-NH2 [FHTG tetrapeptide] registered a dH in test [2] of -5.52 kcal/mol.
Same read-out and setting: next, Ac-FNTA-NH2 [FNTA tetrapeptide]: -4.04 kcal/mol.
